For four molecules, Activity results are on record in ChEMBL document CHEMBL1128624, “Syntheses of -, -monoglycosylceramides and four diastereomers of an -galactosylceramide” (Bioorg Med Chem Lett, 1995).

Molecules are shown by their SMILES. Calls of active or inactive are those of the source. No cut-off for these calls is given here.

The species named for this assay is Mus musculus. Briefly: Antitumor activity against B16-melanoma bearing mice; active. Type of assay: functional, organism-based.
With `CCCCCCCCCCCCCCCCCCCCCC[C@@H](O)C(=O)N[C@@H](CO[C@H]1O[C@@H](CO)[C@H](O)[C@H](O)[C@@H]1O)[C@H](O)[C@H](O)CCCCCCCCCCCC(C)C`, the result was Active. As to `CCCCCCCCCCCCCCCCCCCCCC[C@@H](O)C(=O)N[C@@H](CO[C@H]1O[C@@H](CO)[C@H](O)[C@H](O)[C@@H]1O)[C@H](O)[C@H](O)CCCCCCCCCCCC`, the result was Active. For `CCCCCCCCCCCCCCCCCCCCCCC[C@@H](O)C(=O)N[C@@H](CO[C@H]1O[C@@H](CO)[C@H](O)[C@H](O)[C@@H]1O)[C@H](O)[C@H](O)CCCCCCCCCCCC(C)CC` (some centres undefined) the value was “Active”. Regarding `CCCCCCCCCCCCCCCCCCCCCC[C@@H](O)C(=O)N[C@@H](CO[C@H]1O[C@@H](CO)[C@H](O)[C@H](O)[C@@H]1O)[C@H](O)[C@H](O)CCCCCCCCCCCC(C)CC` (some centres undefined), the outcome was Active.
